Laboratory results from PubChem BioAssay (NCI).
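Step 1: Grow cells in 96-well plates. Step 2: Expose to compound for 48 hours at 5 concentrations. Step 3: Interpolate endpoints linearly; if unreached, use highest concentration. TGI: concentration producing complete growth inhibition.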

Legend:
Test in all cases: NCI anticancer screen, dose series, 48 h
786-0 renal = test system: 786-0 renal
A549 NSCLC = test system: A549 NSCLC
CCRF-CEM leukemia = test system: CCRF-CEM leukemia
COLO 205 colon = test system: COLO 205 colon
DLD-1 colon = test system: DLD-1 colon
DMS 114 small cell lung = test system: DMS 114 small cell lung
DMS 273 small cell lung = test system: DMS 273 small cell lung
EKVX NSCLC = test system: EKVX NSCLC
HCC-2998 colon = test system: HCC-2998 colon
HCT-116 colon = test system: HCT-116 colon
HL-60(TB) leukemia = test system: HL-60(TB) leukemia
HOP-18 NSCLC = test system: HOP-18 NSCLC
HOP-62 NSCLC = test system: HOP-62 NSCLC
HT29 colon = test system: HT29 colon
IGROV1 ovarian = test system: IGROV1 ovarian
K-562 leukemia = test system: K-562 leukemia
KM12 colon = test system: KM12 colon
KM20L2 colon = test system: KM20L2 colon
LOX IMVI melanoma = test system: LOX IMVI melanoma
LXFL 529 NSCLC = test system: LXFL 529 NSCLC
M14 melanoma = test system: M14 melanoma
M19-MEL melanoma = test system: M19-MEL melanoma
MOLT-4 leukemia = test system: MOLT-4 leukemia
NCI-H226 lung = test system: NCI-H226 lung
NCI-H23 lung = test system: NCI-H23 lung
NCI-H460 lung = test system: NCI-H460 lung
NCI-H522 lung = test system: NCI-H522 lung
OVCAR-3 ovarian = test system: OVCAR-3 ovarian
OVCAR-4 ovarian = test system: OVCAR-4 ovarian
OVCAR-8 ovarian = test system: OVCAR-8 ovarian
RPMI-8226 leukemia = test system: RPMI-8226 leukemia
RXF 393 renal = test system: RXF 393 renal
SF-268 CNS = test system: SF-268 CNS
SF-295 CNS = test system: SF-295 CNS
SF-539 CNS = test system: SF-539 CNS
SK-MEL-28 melanoma = test system: SK-MEL-28 melanoma
SK-MEL-5 melanoma = test system: SK-MEL-5 melanoma
SK-OV-3 ovarian = test system: SK-OV-3 ovarian
SN12C renal = test system: SN12C renal
SNB-19 CNS = test system: SNB-19 CNS
SNB-75 CNS = test system: SNB-75 CNS
SNB-78 CNS = test system: SNB-78 CNS
SW-620 colon = test system: SW-620 colon
TK-10 renal = test system: TK-10 renal
U251 CNS = test system: U251 CNS
UACC-62 melanoma = test system: UACC-62 melanoma
XF 498 CNS = test system: XF 498 CNS
ACHN renal = test system: ACHN renal
CAKI-1 renal = test system: CAKI-1 renal
HCT-15 colon = test system: HCT-15 colon
HOP-92 NSCLC = test system: HOP-92 NSCLC
MALME-3M melanoma = test system: MALME-3M melanoma
RXF-631 renal = test system: RXF-631 renal
SK-MEL-2 melanoma = test system: SK-MEL-2 melanoma
SR leukemia = test system: SR leukemia
UACC-257 melanoma = test system: UACC-257 melanoma
UO-31 renal = test system: UO-31 renal

For `COc1cc2c(cc1OC)-c1c3cc(O)ccc3nn[n+]1CC2`, the TGI (786-0 renal) was greater than 100 µM, the TGI (A549 NSCLC) was greater than 100 µM and the TGI (CCRF-CEM leukemia) was greater than 100 µM. The TGI (COLO 205 colon) was greater than 100 µM, the TGI (DLD-1 colon) was greater than 100 µM and the TGI (DMS 114 small cell lung) was greater than 100 µM. For the same compound, the TGI (DMS 273 small cell lung) was greater than 100 µM, the TGI (EKVX NSCLC) was greater than 100 µM and the TGI (HCC-2998 colon) was greater than 100 µM. The TGI (HCT-116 colon) was greater than 100 µM, the TGI (HL-60(TB) leukemia) was greater than 100 µM and the TGI (HOP-18 NSCLC) was greater than 100 µM. It also gave a TGI (HOP-62 NSCLC) greater than 100 µM, a TGI (HT29 colon) greater than 100 µM and a TGI (IGROV1 ovarian) greater than 100 µM. It also gave a TGI (K-562 leukemia) greater than 100 µM, a TGI (KM12 colon) greater than 100 µM and a TGI (KM20L2 colon) greater than 100 µM. For the same compound, the TGI (LOX IMVI melanoma) was greater than 100 µM, the TGI (LXFL 529 NSCLC) was greater than 100 µM and the TGI (M14 melanoma) was greater than 100 µM. It also gave a TGI (M19-MEL melanoma) greater than 100 µM, a TGI (MOLT-4 leukemia) greater than 100 µM and a TGI (NCI-H226 lung) greater than 100 µM. It also gave a TGI (NCI-H23 lung) greater than 100 µM, a TGI (NCI-H460 lung) greater than 100 µM and a TGI (NCI-H522 lung) greater than 100 µM. For the same compound, the TGI (OVCAR-3 ovarian) was greater than 100 µM, the TGI (OVCAR-4 ovarian) was greater than 100 µM and the TGI (OVCAR-8 ovarian) was greater than 100 µM. For the same compound, the TGI (RPMI-8226 leukemia) was greater than 100 µM, the TGI (RXF 393 renal) was greater than 100 µM and the TGI (SF-268 CNS) was greater than 100 µM. The TGI (SF-295 CNS) was greater than 100 µM, the TGI (SF-539 CNS) was greater than 100 µM and the TGI (SK-MEL-28 melanoma) was greater than 100 µM. The TGI (SK-MEL-5 melanoma) was greater than 100 µM, the TGI (SK-OV-3 ovarian) was greater than 100 µM and the TGI (SN12C renal) was greater than 100 µM. It also gave a TGI (SNB-19 CNS) greater than 100 µM, a TGI (SNB-75 CNS) greater than 100 µM and a TGI (SNB-78 CNS) greater than 100 µM. The TGI (SW-620 colon) was greater than 100 µM, the TGI (TK-10 renal) was greater than 100 µM and the TGI (U251 CNS) was greater than 100 µM. For the same compound, the TGI (UACC-62 melanoma) was greater than 100 µM and the TGI (XF 498 CNS) was greater than 100 µM.

Compound `Brc1ccc(N=c2nc3ccccn3n3nc(-c4ccccc4)cc23)cc1` has a TGI (786-0 renal) of 65.2 µM, a TGI (A549 NSCLC) greater than 100 µM and a TGI (ACHN renal) greater than 100 µM. It also gave a TGI (CAKI-1 renal) of 59.9 µM, a TGI (CCRF-CEM leukemia) greater than 100 µM and a TGI (COLO 205 colon) greater than 100 µM. It also gave a TGI (DLD-1 colon) of 47.7 µM, a TGI (DMS 114 small cell lung) greater than 100 µM and a TGI (EKVX NSCLC) greater than 100 µM. For the same compound, the TGI (HCT-116 colon) was greater than 100 µM, the TGI (HCT-15 colon) was greater than 100 µM and the TGI (HL-60(TB) leukemia) was greater than 100 µM. The TGI (HOP-18 NSCLC) was greater than 100 µM, the TGI (HOP-62 NSCLC) was 32.8 µM and the TGI (HOP-92 NSCLC) was 87.2 µM. For the same compound, the TGI (HT29 colon) was greater than 100 µM, the TGI (IGROV1 ovarian) was greater than 100 µM and the TGI (K-562 leukemia) was greater than 100 µM. It also gave a TGI (KM12 colon) greater than 100 µM, a TGI (KM20L2 colon) greater than 100 µM and a TGI (LXFL 529 NSCLC) greater than 100 µM. For the same compound, the TGI (M14 melanoma) was 33 µM, the TGI (M19-MEL melanoma) was greater than 100 µM and the TGI (MALME-3M melanoma) was 26.7 µM. The TGI (MOLT-4 leukemia) was greater than 100 µM, the TGI (NCI-H226 lung) was greater than 100 µM and the TGI (NCI-H23 lung) was greater than 100 µM. The TGI (NCI-H460 lung) was greater than 100 µM, the TGI (NCI-H522 lung) was 88.2 µM and the TGI (OVCAR-3 ovarian) was 72.1 µM. It also gave a TGI (OVCAR-4 ovarian) of 20.7 µM, a TGI (OVCAR-8 ovarian) greater than 100 µM and a TGI (RPMI-8226 leukemia) greater than 100 µM. The TGI (RXF 393 renal) was 51.1 µM, the TGI (RXF-631 renal) was greater than 100 µM and the TGI (SF-268 CNS) was greater than 100 µM. The TGI (SF-295 CNS) was greater than 100 µM, the TGI (SF-539 CNS) was greater than 100 µM and the TGI (SK-MEL-2 melanoma) was greater than 100 µM. It also gave a TGI (SK-MEL-28 melanoma) greater than 100 µM, a TGI (SK-MEL-5 melanoma) greater than 100 µM and a TGI (SK-OV-3 ovarian) greater than 100 µM. For the same compound, the TGI (SN12C renal) was greater than 100 µM, the TGI (SNB-19 CNS) was 95.1 µM and the TGI (SNB-75 CNS) was greater than 100 µM. It also gave a TGI (SR leukemia) greater than 100 µM, a TGI (SW-620 colon) greater than 100 µM and a TGI (TK-10 renal) of 95.4 µM. The TGI (U251 CNS) was greater than 100 µM, the TGI (UACC-257 melanoma) was greater than 100 µM and the TGI (UACC-62 melanoma) was 63.3 µM. It also gave a TGI (UO-31 renal) greater than 100 µM and a TGI (XF 498 CNS) of 77 µM.
